Measurements from patent US11939324B2, “Compounds for the treatment of epilepsy, neurodegenerative disorders and other CNS disorders” (reMYND N.V., priority 2017, dated 2024).

How the values were obtained:
[1] = system: primary rat hippocampal neurons; experiment: Ex-vivo inhibition of oligomeric amyloid beta (ADDL) toxicity in primary neurons; format: cell-based; conditions: 100 ng/mL, 1000 nM ADDL, 24 h, FIG. 4
Procedure: An exemplary compound of this invention was tested for its ability to inhibit toxicity elicited by oligomeric amyloid beta (Aβo). Neurons from rat embryos were harvested and cultured using standard methods (such as used in Schlager et al., 2014. Cell reports, 8(5), pp. 1248-56.). Differentiated neurons were challenged with Apo and viability was quantified.
At day in-vitro 19 days after isolation primary hippocampal neurons were transfected with Marcks-GFP in order to visualize the neurons with fluorescence microscopy.
ADDL (Abeta-derived diffusible ligands) preparation (representing Aβo) was done according to Klein (Klein, 2002. Neurochemistry international, 41(5), pp. 345-52.). Abeta 1-42 was purchased from AnaSpec Inc. and dissolved in HFIP to homogenize the peptide. HFIP was then evaporated in a speedvac and Abeta film was dried at −20° C. overnight over desiccant. Abeta film was then resolubilised in 100% DMSO and further diluted (1/25) in Ham's F12 medium. […]
The solution was centrifuged at 14.000×g for 10 min at 4° C. and supernatants were transferred to fresh tubes and protein concentration determined by NanoDrop®.
At day in-vitro 21 primary rat hippocampal neurons were treated with equal volume of Blank/ADDL solution amounting to 0 and 1000 nM ADDL. […] Viability was assessed using the Live-Dead assay from Thermo Fisher Catalog number: L3224. […]

TAU phosphorylation = experiment: In vivo inhibition of TAU phosphorylation in brain of APP*PS1 mice (Western analysis); conditions: 20 mg/kg subcutaneously daily for 2 weeks, 5 month old APP*PS1 mice, versus vehicle, FIG. 6
Text: FIG. 6 represents graphs plotting quantifications of pathologically phosphorylated TAU species determined by Western blots of brain extracts from transgenic APP mice treated with vehicle or with exemplary Compound 6. The graphs depict the mean normalized TAU signals±SEM. ** indicate p<0.01 relative to vehicle treated animals. The TAU signals were obtained by using antibodies directed against: • (A) AT8 p-TAU, indicates the antibody recognising p-TAU phosphorylated on serine 202 and threonine 205 • (B) AD2 p-TAU, indicates the antibody recognising p-TAU phosphorylated on serines 396 and 404 • (C) phosphorylated TAU on T231 • (D) phosphorylated TAU on S262.
Transgenic human 5 month old APP*PS1 mice (The Journal of Neuroscience, Sep. 1, 2000, 20(17):6452-6458) were treated daily subcutaneously with 20 mg/kg Compound 6 for 2 weeks.
At the end of the treatment period, mice were sacrificed and the corresponding brains were used for biochemical analysis.

[2] = system: Transgenic human APP mice; experiment: Morris Water Maze cognition test in transgenic APP mice; format: in vivo; conditions: 20 mg/kg subcutaneously daily for 8 weeks, versus vehicle
Procedure: P-value refers to the treatment of transgenic APP mice with exemplary Compound 6 versus vehicle.
Transgenic human of 4 months of age APP mice (THE JOURNAL OF BIOLOGICAL […] Vol. 274, No. 10, Issue of March 5, pp. 6483-6492, 1999) were treated subcutaneously, daily for 8 weeks with Compound 6 at 20 mg/kg. Cognition was assessed using the Morris Water Maze test. […] After the learning phase a probe test was conducted in which the platform was removed from the water bath to evaluate the spatial memory of the location of the platform.
Both indices indicate that compound treated mice have improved cognitive performance almost identical to wild type controls compared to vehicle treated mice.

mouse brain slices = experiment: Afterhyperpolarization of single action potentials in mouse brain slices; format: cell-based; conditions: versus vehicle, FIG. 9, p<0.05
Procedure: FIG. 9 represents a graph plotting the afterhyperpolarization (AHP) amplitude of single action potentials by somatic current clamp recordings using mouse brain slices incubated with vehicle or Compound 6. * indicates p<0.05.
Somatic or dendritic (>200 μm from the soma) current-clamp recordings were performed at RT (24 to 28° C.) and slices were continuously perfused with carboxygenated standard aCSF, supplemented with control or test article REM0043039 at 2 μM. For whole-cell recordings, patch pipettes were filled with a solution containing (in mM) 140 K-gluconate, 5 NaCl, 2 MgCl2, 10 HEPES, 0.5 EGTA, 2 MgATP, 0.4 NaGTP, osmolarity 305, pH adjusted to 7.25 with KOH. The soma or dendrite of large CA1 pyramidal neurons were identified and patch-clamped after visual approach of the recording pipette using a combination of infrared light and differential interference contrast (DIC) optics. […] Recordings were terminated when the series resistances exceeded 40 MO. Signals were digitized and low-pass filtered at 10 kHz. The signal was amplified with an Axopatch 200B amplifier, digitized by a Digidata 155 interface and sampled with Clampex 10 (Molecular Devices, CA). […]
Action potentials (AP) after electrical stimulation of mouse brain slices were analysed (FIG. 9). […]

CA1 pyramidal neurons = experiment: Neuronal firing rate in brain slices from tgAPP mice (patch clamp, CA1); format: cell-based, mouse; conditions: 2 μM, 1 hr perfusion, higher stimuli, FIG. 8
Procedure: Brain slices from wild type and tgAPP mice were incubated with DMSO or Compound 6. Neurons were stimulated with increasing currents and the frequency of action potentials (firing rate) was measured.
In tgAPP mice the frequency of action potentials at higher stimuli was higher.
Acute sagittal brain slices from WT or hAPP mice were prepared by decapitation of the mice after isoflurane anaesthesia. Brains were removed quickly and immersed during 3-4 min in ice-cold freshly prepared cutting artificial cerebrospinal fluid (cutting aCSF) containing (in mM) 214 sucrose, 2.5 KCl, 2 CaCl2, 2 MgSO4, 1.25 NaH2PO2, 26 NaHCO3 and 10 glucose and oxygenated with 95% O2/5% CO2. Sagittal 350 μm slices were generated using a vibratome (VT 1000S; Leica Microsystems) and were incubated in standard carboxygenated aCSF (in mM: 125 NaCl, 2.5 KCl, 2 CaCl2, 2 MgSO4, 1.25 NaH2PO2, 26 NaHCO3 and 10 glucose, osmolarity 305 mOsm) at 34° C. during 20 min. The incubation continued at room temperature (RT) for another hour before each slice was transferred to a submerged recording chamber and perfused continuously with carboxygenated aCSF. […]
Dendritic firing rate of CA1 cells was recorded in response to hyperpolarizing and depolarizing steps (−0.4 to +0.45 nA, steps of 0.05 nA) after a 1 hr perfusion with vehicle or compound at 2 μM. […]

O=C(NCCc1c[nH]c2ccc(F)cc12)c1cc(Cc2cc(F)ccc2F)on1 [Compound 6]
neuronal viability after Aβo challenge [1]: strongly rescued
TAU phosphorylation in brain extracts (TAU phosphorylation): more effectively reduced TAU phosphorylation
search path during training phase of Morris Water Maze ([2]; FIG. 7A): reduced search path
annulus crossing index score in probe test ([2]; FIG. 7B): higher annulus crossing index score
afterhyperpolarization (AHP) amplitude of action potentials (mouse brain slices): increased
frequency of action potentials (firing rate) (CA1 pyramidal neurons): significantly lowered the frequency towards wild type level
